Laboratory results as given in article PMC9144521 (Viruses, 2022).
pEC50: −log10 of the molar value. Structures can show the parent of a compound that is named as a salt.

Columns and labels:
adenovirus 5 = test system: adenovirus 5; design: method as in ref 28, 31 = [28]; details: cited from earlier work
in vitro = details: African green monkey
AdV5 = assay: Anti-AdV activity assay (IFA of hexon), secondary screen, AdV5; format: cell-based, Human adenoviruses type 5; details: for Selective Index AdV5: CC50/EC50, Vero cells; for pEC50: Vero cells, 48 h, IFA of hexon, 0.02 to 5 μM
AdV3 = assay: Anti-AdV activity assay (IFA of hexon), secondary screen, AdV3; format: cell-based, Human adenoviruses type 3; details: for Selective Index AdV3: CC50/EC50, Vero cells; for pEC50: Vero cells, 48 h, IFA of hexon, 0.02 to 5 μM
Aurora A = test system: Aurora A; design: method as in ref 25 = [25]; details: cited from earlier work

Row | Compound | reported inhibition of replication of adenovirus 5 (adenovirus 5) | CC50 at 48 h (in vitro; Vero cells) [nM] | Selective Index AdV5 (AdV5) | pEC50 (AdV5) | Selective Index AdV3 (AdV3) | pEC50 (AdV3) | CC50 (Vero cells) [nM] | CC50 at 48 h (in vitro) [nM] | selectivity for Aurora A than Aurora B (Aurora A) [fold]
1 | O=C(/C=C\n1cnc(-c2cc(C(F)(F)F)cc(C(F)(F)F)c2)n1)NNc1ccccn1 [KPT-335] | inhibit the replication of adenovirus 5 | 1900 | 3.14 | 6.21 | 12.65 | 6.82 |  |  | 
2 | COc1ccc(-c2cc3c(C)nc(N)nc3n([C@H]3CC[C@H](OCCO)CC3)c2=O)cn1 [PF-04691502] |  |  | >41.46 | 6.92 | >86.01 | 7.22 | > 5000 |  | 
3 | N#Cc1c(Oc2ccc(F)c(NC(=O)Cc3cccc(C(F)(F)F)c3)c2)ccc2nc(NC(=O)C3CC3)sc12 [TAK-632] |  |  | 12.3 | 6.80 | 11.15 | 6.74 | 1990 |  | 
4 | CCNC(=O)c1[nH]nc(-c2cc(Cl)c(O)cc2O)c1-c1ccc(OC)cc1 [VER-49009] |  |  | >60.00 | 7.10 | >186.00 | 7.52 | > 5000 |  | 
5 | COC1(c2sc3c(N4CCOCC4)nc(-c4cnc(N)nc4)nc3c2C)COC1 [GNE-317] |  |  |  | 6.23 |  | 6.59 | > 5000 |  | 
6 | Cl.Cl.O=S(=O)(NCCNC/C=C/c1ccc(Br)cc1)c1cccc2cnccc12 [H 89 2HCl] |  |  |  | < 5.30 | >15.97 | 6.51 | > 5000 |  | 
7 | C#Cc1cccc(Nc2ncnc3cc(OCCOC)c(OCCO)cc23)c1.Cl [DesMethyl Erlotinib] |  |  |  | < 5.30 | >9.72 | 6.29 | > 5000 |  | 
8 | c1cncc(CN2CCC(n3ncc4c(N5CCOCC5)nc(-c5ccc6[nH]ccc6c5)nc43)CC2)c1 [WAY-600] |  |  | 2.86 | 5.96 | 5.51 | 6.25 | 3110 |  | 
9 | CNC(=O)c1ccc(C)c(-n2c(C)cc(OCc3ccc(F)cc3F)c(Br)c2=O)c1 [PH-797804] |  |  | >3.16 | 5.80 | >250.00 | 7.70 |  | > 5000 | 
10 | CC(C)c1cc(C(=O)N2Cc3ccc(CN4CCN(C)CC4)cc3C2)c(O)cc1O [AT13387] |  | > 5000 | >27.13 | 6.74 | >61.84 | 7.10 |  |  | 
11 | COc1cc(Nc2ncc(F)c(Nc3ccc4c(n3)NC(=O)C(C)(C)O4)n2)cc(OC)c1OC [R406] |  |  |  | < 5.30 | >5.32 | 6.03 | > 5000 |  | 
12 | COc1cc2ncnc(Nc3ccc(F)c(Cl)c3)c2cc1NC(=O)/C=C/CN1CCCCC1 [Dacomitinib] |  | 4880 | 2.97 | 5.79 | 6.31 | 6.11 |  |  | 
13 | CC1(C)CC(=O)c2c(C(F)(F)F)nn(-c3ccc(C(N)=O)c(N[C@H]4CC[C@H](OC(=O)CN)CC4)c3)c2C1 [PF-04929113] |  |  | >12.46 | 6.40 | >26.61 | 6.72 |  | > 5000 | 
14 | Cn1c(Nc2ccc(C(F)(F)F)cc2)nc2cc(Oc3ccnc(-c4ncc(C(F)(F)F)[nH]4)c3)ccc21 [RAF265] |  |  |  | < 5.30 | >3.91 | 5.89 |  | > 5000 | 
15 | CN1CCN(c2ccc(Nc3ncc4cc(C#N)c(=O)n(C5CCCC5)c4n3)cc2)CC1 [ON123300] |  | > 5000 | >3.08 | 5.79 | >1.72 | 5.54 |  |  | 
16 | CC(C)c1cc(-c2n[nH]c(=O)n2-c2ccc3c(ccn3C)c2)c(O)cc1O [STA-9090] |  | 4440 | 76.73 | 7.30 | 97.56 | 7.30 |  |  | 

Row | Compound | reported inhibition of replication of adenovirus 5 (adenovirus 5) | CC50 at 48 h (in vitro; Vero cells) [nM] | Selective Index AdV5 (AdV5) | pEC50 (AdV5) | Selective Index AdV3 (AdV3) | pEC50 (AdV3) | CC50 (Vero cells) [nM] | CC50 at 48 h (in vitro) [nM] | selectivity for Aurora A than Aurora B (Aurora A) [fold]
17 | Cc1cc(Nc2cc(N3CCN(C)CC3)nc(/C=C/c3ccccc3)n2)n[nH]1.O=C(O)C(O)C(O)C(=O)O [ENMD-2076 L-(+)-Tartaric acid] |  |  |  | 5.86 |  | 5.87 | 4340 |  | 25
18 | O=C(/C=C\n1cnc(-c2cc(C(F)(F)F)cc(C(F)(F)F)c2)n1)N1CC(F)(F)C1 [KPT-276] |  |  | >5.13 | 6.01 | >50.46 | 7.00 | > 5000 |  | 
19 | COc1c(C)cnc(Cn2cnc3c(Cl)nc(N)nc32)c1C [BIIB021] |  |  | >21.2 | 6.62 | >48.73 | 7.00 |  | > 5000 | 
20 | O=C(/C=C\n1cnc(-c2cc(C(F)(F)F)cc(C(F)(F)F)c2)n1)NNc1cnccn1 [KPT-330] |  |  | 3.04 | 6.28 | 15.45 | 7.00 |  | 1580 | 
21 | CC[C@@H](C)Nc1cc(C(=O)N[C@H]2C[C@H]3CC[C@@H](C2)N3c2ccc(C(=O)C3CC3)cn2)c(C)cc1C(N)=O [XL888] |  |  | >10.33 | 6.32 | >29.69 | 6.77 | > 5000 |  | 
22 | CCNC(=O)Nc1ccc(-c2nc3c(c(N4CCOC[C@@H]4C)n2)CCN(C2COC2)C3)cc1 [GDC-0349] |  | > 5000 | >1.91 | 5.58 | >3.63 | 5.86 |  |  | 
23 | CCn1c(=O)c(-c2cc[nH]n2)cc2c(C)nc(N)nc21 [Voxtalisib] |  |  | 0.83 | 5.57 | 4.83 | 6.33 |  | 2260 | 
24 | COc1cccc(-c2cc(F)ccc2[C@H]2Cc3nc(N)nc(C)c3C(=O)N2)n1 [HSP990] |  |  | 148.47 | 7.52 | 205.19 | 7.70 | 4310 |  | 
25 | COc1cccc2cc(-c3nc([C@H]4CC[C@H](C(=O)O)CC4)n4ncnc(N)c34)[nH]c12 [OSI-027] |  |  | >2.08 | 5.62 | >3.62 | 5.86 |  | > 5000 | 
26 | CO[C@H]1/C=C\C=C(/C)C(=O)NC2=CC(=O)C(NCCN(C)C)=C(C[C@@H](C)C[C@H](OC)[C@H](O)[C@@H](C)/C=C(\C)[C@@H]1OC(N)=O)C2=O [17-DMAG] |  |  | >11.58 | 6.37 | >23.20 | 6.66 |  | > 5000 | 
27 | Cc1c(CN2CCN(C(=O)[C@H](C)O)CC2)sc2c(N3CCOCC3)nc(-c3cnc(N)nc3)nc12 [GDC-0980] |  |  | 10.96 | 6.57 | 36.44 | 7.10 |  | 3000 | 
28 | CC(C)NCCCn1c(Sc2cc3c(cc2I)OCO3)nc2c(N)ncnc21 [PU-H71] |  | > 5000 | >2.27 | 5.66 | >6.79 | 6.13 |  |  | 
29 | CNC(=O)c1cc(Oc2ccc(NC(=O)Nc3ccc(Cl)c(C(F)(F)F)c3)cc2)ccn1 [Sorafenib Tosylate] |  |  | 1.53 | 5.41 | 4.67 | 5.90 |  | > 5000 | 
30 | CNC(=O)Nc1ccc(-c2nc(N3CC4CCC(C3)O4)c3cnn(C4CCC5(CC4)OCCO5)c3n2)cc1 [WYE-125132] |  |  | >32.47 | 6.82 | >89.17 | 7.22 | > 5000 |  | 
31 | C=CCNC1=C2C[C@@H](C)C[C@H](OC)[C@H](O)[C@@H](C)/C=C(\C)[C@H](OC(N)=O)[C@@H](OC)/C=C\C=C(/C)C(=O)NC(=CC1=O)C2=O [17-AAG] | inhibit the replication of adenovirus 5 |  | >0.46 | < 5.30 | >9.93 | 6.30 |  | > 5000 | 
